In the supplement of paper PMC8612539:

Legend:
[1] = test system: Mannheimia haemolytica; experiment: minimum inhibitory concentration (MIC)
Description: (§1)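 Broth microdilution MIC (Sensititre BOPO7F bovine plate, CLSI methods) of 19 antimicrobials against field isolates of P. multocida, M. haemolytica, H. somni (deep nasopharyngeal swabs) and E. coli, Enterococcus spp. (rectal swabs) from weaned dairy heifers. Incubation 16-24 h at 35 C. MIC is the lowest concentration preventing visible growth. Values with <= or > lie at the tested range limits. Trimethoprim-sulfamethoxazole is given as the trimethoprim component of a 1:19 mixture.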

[2] = test system: Enterococcus spp.; experiment: minimum inhibitory concentration (MIC)
Description: as §1

COc1cc(Cc2cnc(N)nc2N)cc(OC)c1OC.Cc1cc(NS(=O)(=O)c2ccc(N)cc2)no1 [trimethoprim-sulfamethoxazole]
minimum inhibitory concentration [µg/mL]
Conditions	[1]	[2]
isolate (source animal id): 2	–	≤ 2
isolate (source animal id): 3	≤ 2	–
isolate (source animal id): 8	≤ 2	–
isolate (source animal id): 13	≤ 2	–
isolate (source animal id): 18	≤ 2	–
isolate (source animal id): 21	≤ 2	–
isolate (source animal id): 25	≤ 2	–
isolate (source animal id): 27	≤ 2	–
isolate (source animal id): 28	≤ 2	–
isolate (source animal id): 30	≤ 2	–
isolate (source animal id): 31	≤ 2	–
isolate (source animal id): 32	≤ 2	–
isolate (source animal id): 34	≤ 2	–
isolate (source animal id): 35	–	> 2
isolate (source animal id): 36	≤ 2	–
isolate (source animal id): 37	≤ 2	–
isolate (source animal id): 40	≤ 2	–
isolate (source animal id): 41	≤ 2	–
isolate (source animal id): 42	–	≤ 2
isolate (source animal id): 43	≤ 2	–
isolate (source animal id): 44	–	> 2
isolate (source animal id): 46	≤ 2	–
isolate (source animal id): 49	≤ 2	–
isolate (source animal id): 50	≤ 2	–
isolate (source animal id): 51	≤ 2	–
isolate (source animal id): 52	≤ 2	–
isolate (source animal id): 53	≤ 2	–
isolate (source animal id): 55	≤ 2	–
isolate (source animal id): 56	≤ 2	–
isolate (source animal id): 57	≤ 2	–
isolate (source animal id): 60	> 2	–
isolate (source animal id): 61	≤ 2	–
isolate (source animal id): 64	≤ 2	–
isolate (source animal id): 65	≤ 2	–
isolate (source animal id): 66	> 2	–
isolate (source animal id): 67	≤ 2	–
isolate (source animal id): 68	≤ 2	–
isolate (source animal id): 70	≤ 2	–
isolate (source animal id): 72	≤ 2	–
isolate (source animal id): 74	≤ 2	–
isolate (source animal id): 76	≤ 2	–
isolate (source animal id): 79	–	≤ 2
isolate (source animal id): 80	≤ 2	–
isolate (source animal id): 82	≤ 2	–
isolate (source animal id): 83	≤ 2	–
isolate (source animal id): 84	≤ 2	–
isolate (source animal id): 85	≤ 2	–
isolate (source animal id): 86	≤ 2	–
isolate (source animal id): 87	> 2	–
isolate (source animal id): 88	–	≤ 2
isolate (source animal id): 91	–	≤ 2
isolate (source animal id): 92	–	≤ 2
isolate (source animal id): 100	> 2	–
isolate (source animal id): 103	≤ 2	–
isolate (source animal id): 107	≤ 2	–
isolate (source animal id): 108	≤ 2	–
isolate (source animal id): 111	–	≤ 2
isolate (source animal id): 112	≤ 2	–
isolate (source animal id): 113	≤ 2	–
isolate (source animal id): 121	≤ 2	–
isolate (source animal id): 122	≤ 2	> 2
isolate (source animal id): 123	≤ 2	≤ 2
isolate (source animal id): 126	≤ 2	–
isolate (source animal id): 133	≤ 2	≤ 2
isolate (source animal id): 135	≤ 2	–
isolate (source animal id): 138	≤ 2	–
isolate (source animal id): 141	≤ 2	–
isolate (source animal id): 142	≤ 2	–
isolate (source animal id): 145	≤ 2	–
isolate (source animal id): 149	≤ 2	–
isolate (source animal id): 151	≤ 2	–
isolate (source animal id): 152	≤ 2	–
isolate (source animal id): 154	≤ 2	–
isolate (source animal id): 158	–	> 2
isolate (source animal id): 159	≤ 2	–
isolate (source animal id): 162	≤ 2	–
isolate (source animal id): 168	–	≤ 2
isolate (source animal id): 169	–	≤ 2
isolate (source animal id): 170	≤ 2	–
isolate (source animal id): 171	≤ 2	≤ 2
isolate (source animal id): 172	≤ 2	–
isolate (source animal id): 173	≤ 2	–
isolate (source animal id): 175	–	≤ 2
isolate (source animal id): 177	–	≤ 2
isolate (source animal id): 179	≤ 2	–
isolate (source animal id): 180	≤ 2	–
isolate (source animal id): 181	–	≤ 2
isolate (source animal id): 182	–	≤ 2
isolate (source animal id): 183	≤ 2	≤ 2
isolate (source animal id): 186	≤ 2	–
isolate (source animal id): 187	≤ 2	≤ 2
isolate (source animal id): 188	≤ 2	–
isolate (source animal id): 190	≤ 2	≤ 2
isolate (source animal id): 191	≤ 2	–
isolate (source animal id): 192	≤ 2	–
isolate (source animal id): 194	–	≤ 2
isolate (source animal id): 195	–	≤ 2
isolate (source animal id): 197	–	≤ 2
isolate (source animal id): 201	≤ 2	–
isolate (source animal id): 202	≤ 2	–
isolate (source animal id): 209	≤ 2	–
isolate (source animal id): 211	≤ 2	≤ 2
isolate (source animal id): 214	–	> 2
isolate (source animal id): 220	≤ 2	–
isolate (source animal id): 221	≤ 2	–
isolate (source animal id): 222	–	≤ 2
isolate (source animal id): 223	≤ 2	≤ 2
isolate (source animal id): 228	–	≤ 2
isolate (source animal id): 230	–	≤ 2
isolate (source animal id): 233	≤ 2	–
isolate (source animal id): 235	–	≤ 2
isolate (source animal id): 236	–	≤ 2
isolate (source animal id): 237	≤ 2	–
isolate (source animal id): 239	–	≤ 2
isolate (source animal id): 241	≤ 2	≤ 2
isolate (source animal id): 244	–	≤ 2
isolate (source animal id): 246	–	≤ 2
isolate (source animal id): 247	–	≤ 2
isolate (source animal id): 250	–	≤ 2
isolate (source animal id): 252	≤ 2	> 2
isolate (source animal id): 253	≤ 2	–
isolate (source animal id): 259	≤ 2	–
isolate (source animal id): 260	≤ 2	–
isolate (source animal id): 262	≤ 2	–
isolate (source animal id): 268	–	≤ 2
isolate (source animal id): 282	≤ 2	≤ 2
isolate (source animal id): 285	–	> 2
isolate (source animal id): 287	≤ 2	–
isolate (source animal id): 288	≤ 2	–
isolate (source animal id): 289	–	≤ 2
isolate (source animal id): 290	–	≤ 2
isolate (source animal id): 291	≤ 2	–
isolate (source animal id): 293	≤ 2	–
isolate (source animal id): 296	–	≤ 2
isolate (source animal id): 298	≤ 2	≤ 2
isolate (source animal id): 299	≤ 2	–
isolate (source animal id): 300	≤ 2	–
isolate (source animal id): 301	–	≤ 2
isolate (source animal id): 302	≤ 2	–
isolate (source animal id): 304	≤ 2	–
isolate (source animal id): 306	≤ 2	–
isolate (source animal id): 308	≤ 2	–
isolate (source animal id): 309	≤ 2	–
isolate (source animal id): 310	–	> 2
isolate (source animal id): 313	≤ 2	–
isolate (source animal id): 318	≤ 2	–
isolate (source animal id): 320	≤ 2	≤ 2
isolate (source animal id): 321	≤ 2	–
isolate (source animal id): 323	≤ 2	–
isolate (source animal id): 324	≤ 2	–
isolate (source animal id): 326	≤ 2	–
isolate (source animal id): 328	≤ 2	–
isolate (source animal id): 329	≤ 2	–
isolate (source animal id): 331	–	≤ 2
isolate (source animal id): 333	≤ 2	≤ 2
isolate (source animal id): 335	≤ 2	–
isolate (source animal id): 338	≤ 2	–
isolate (source animal id): 341	–	> 2
